How the values were obtained:
mice [1] = experiment: antiaggressive effect, "fighting behaviour" test; assay type: in vivo; conditions: for ED50: Mus musculus, po; for Relative activity: antiaggressive effect, p.o., tofizopam = 1.0
From the text: The antiaggressive effect was studied on mice by the so-called "fighting behaviour" test [J. Pharm. Exp. Ther. 125, 28 (1959)]. Tofizopam and 1-(3-chlorophenyl)-4-methyl-7,8-dimethoxy-5H-2,3-benzodiazepine were used as reference agents.

mice [2] = experiment: narcosis potentiating effect (sodium hexobarbital narcosis); assay type: in vivo; conditions: Mus musculus, po, 50 mg/kg sodium hexobarbital i.v., limits between slashes, read-out: ED50 (dose increasing the narcosis period of half of the test animals to double)
Description: The narcosis potentiating effect was studied on mice. The compounds were administered in 3 or 4 oral doses to 15-20 animals per dose. Narcosis was induced with 50 mg/kg of sodium hexobarbital injected intravenously into the animals. The ED50 value is the dose increasing the narcosis period of half of the test animals to double.

[3] = anxiolytic effect, Vogel lick-conflict test; assay type: in vivo
Description: The anxiolytic effect was determined by the method of Vogel lick-conflict test/[Psychopharmacol. 21, 1 1979]. Tofizopam, 1-(3-chlorophenyl)-4-methyl-7,8-dimethoxy-5H-2,3-benzodiazepine and Chlorodiazepoxide 7-chloro-2-methylamino-5-phenyl-3H-1,4-benzodiazepine-4-oxide were used as reference agents.

[4] = system: mice from the CFLP strain; experiment: spontaneous motor activity, motimeter of Animex type; assay type: in vivo; conditions: Mus musculus, po, 2 hours registration, Litchfield and Wilcoxon, limits between slashes, read-out: ED50 value (dose decreasing the spontaneous motor activity to half)
Description: The spontaneous motor activity was measured on a motimeter of Animex type. Groups of animal consisting of 3 mice from the CFLP strain weighing 20 to 23 g were starved for 24 hours and put to the apparatus. After a previous treatment of 10 minutes the amount of movements was registered continuously for 2 hours. The dose decreasing the spontaneous motor activity to half in comparison with the control group treated with vehiculum was determined.
The ED50 values were calculated by the method of Litchfield and Wilcoxon [J. Pharmacol. Exp. Ther. 96, 99 1949].

[5] = tofizopam used in the therapy; cited from earlier work
mice [6] = experiment: hypnotic activity in mice (HD50); assay type: in vivo; conditions: for ED50: Mus musculus, mice
rats = experiment: hypnotic activity in rats (HD50); assay type: in vivo; conditions: Rattus norvegicus, iv
[7] = muscle relaxant activity, rotarod test; assay type: in vivo; conditions: ip, read-out: ED50, rotarod test
[8] = muscle relaxant activity, "inclined screen" test; assay type: in vivo

SMILES	ED50 (mice [1])	Relative activity (mice [1])	ED50 (mice [2])	ED50 [4]	further results
COc1cc2c(cc1OC)C(C)C(C)=NN=C2c1ccc(N)cc1 (stereo not drawn) [Example 11, 1-(4-Aminophenyl)-4,5-dimethyl-7,8-dimethoxy-5H-2,3-benzodiazepine]	16 mg/kg	4.6			
COc1cc2c(cc1OC)C(c1cccc(N)c1)=NN=C(C)C2 [Example 2, 1-(3-Aminophenyl)-4-methyl-7,8-dimethoxy-5H-2,3-benzodiazepine]	12.5 mg/kg	5.1	8.2 mg/kg	1.3 mg/kg	Number of electric shocks tolerated ([3]; 10 mg/kg i.p.): 4.2 ± 0.7; Number of electric shocks tolerated ([3]; 25 mg/kg i.p.): 15.1 ± 1.9
COc1cc2c(cc1OC)C(c1cccc(Cl)c1)=NN=C(C)C2 [1-(3-chlorophenyl)-4-methyl-7,8-dimethoxy-5H-2,3-benzodiazepine, reference compound]	16 mg/kg	4.6	16 mg/kg	6.2 mg/kg	Number of electric shocks tolerated ([3]; 25 mg/kg i.p.): 9.9 ± 2.8; Number of electric shocks tolerated ([3]; 50 mg/kg i.p.): 19.0 ± 2.3
COc1cc2c(cc1OC)C(c1ccc(N)cc1)=NN=C(C)C2 [Example 1, 1-(4-aminophenyl)-4-methyl-7,8-dimethoxy-5H-2,3-benzodiazepine]	8.1 mg/kg	7.9	4.8 mg/kg	3.2 mg/kg	Number of electric shocks tolerated ([3]; 2.5 mg/kg i.p.): 4.1 ± 0.7; Number of electric shocks tolerated ([3]; 5 mg/kg i.p.): 13.9 ± 2.7; Number of electric shocks tolerated ([3]; 10 mg/kg i.p.): 19.7 ± 2.9
COc1cc2c(cc1OC)C(c1ccc(C)c(N)c1)=NN=C(C)C2 [Example 15, 1-(3-Amino-4-methylphenyl)-4-methyl-7,8-dimethoxy-5H-2,3-benzodiazepine]	17 mg/kg	3.8	25 mg/kg	9.7 mg/kg	
CNC1=Nc2ccc(Cl)cc2C(c2ccccc2)=[N+]([O-])C1 [Chlorodiazepoxide, 7-chloro-2-methylamino-5-phenyl-3H-1,4-benzodiazepine-4-oxide, reference compound]					Number of electric shocks tolerated ([3]; 5 mg/kg i.p.): 9.7 ± 3.7; Number of electric shocks tolerated ([3]; 10 mg/kg i.p.): 27.5 ± 2.5
COc1cc2c(cc1OC)C(c1ccc(N)c(C)c1)=NN=C(C)C2 [Example 10, 1-(3-Methyl-4-aminophenyl)-4-methyl-7,8-dimethoxy-5H-2,3-benzodiazepine]	9.1 mg/kg	7.0	7.4 mg/kg	4.4 mg/kg	
CCC1C(C)=NN=C(c2ccc(OC)c(OC)c2)c2cc(OC)c(OC)cc21 (stereo not drawn) [Tofizopam, 1-(3,4-dimethoxyphenyl)-4-methyl-5-ethyl-7,8-dimethoxy-5H-2,3-benzodiazepine, reference compound]	74 mg/kg	1.0	38 mg/kg	22 mg/kg	further central nervous character (in words), reference drug [5]: in addition to the anxiolytic effect, a weak antidepressant activity; Number of electric shocks tolerated ([3]; 25 mg/kg i.p.): 3.6 ± 0.4; Number of electric shocks tolerated ([3]; 50 mg/kg i.p.): 19.8 ± 3.7
COc1cc2c(cc1OC)C(c1ccc(N)c(Cl)c1)=NN=C(C)C2 [Example 18, 1-(3-Chloro-4-aminophenyl)-4-methyl-7,8-dimethoxy-5H-2,3-benzodiazepine]	7.9 mg/kg	8.1	7.6 mg/kg		Number of electric shocks tolerated ([3]; 2.5 mg/kg i.p.): 7.6 ± 3.0; Number of electric shocks tolerated ([3]; 5 mg/kg i.p.): 8.3 ± 1.0
O=C1CN=C(c2ccccc2)c2cc([N+](=O)[O-])ccc2N1 [Nitrazepam, 7-nitro-5-phenyl-1,3-dihydro-2H-1,4-benzodiazepin-2-one, reference compound]					ED50 (mice [6]; ip): 150 mg/kg; ED50 (mice [6]; iv): 75 mg/kg; ED50 (mice [6]; po): 185 mg/kg; ED50 (rats): 96 mg/kg
CC1=NN=C(c2ccc(N)cc2)c2cc3c(cc2C1)OCO3 [Example 8, 1-(4-aminophenyl)-4-methyl-7,8-methylenedioxy-5H-2,3-benzodiazepine]			7.4 mg/kg	48 mg/kg	ED50 [7]: 24 mg/kg; ED50 (mice [6]; ip): 70 mg/kg; ED50 (mice [6]; iv): 40 mg/kg; ED50 (mice [6]; po): 140 mg/kg; hypnotic activity (in words) (mice [6]; mice and rats): significant hypnotic activity; ED50 (rats): 40 mg/kg; ED50 ([8]; ip, read-out: ED50, inclined screen test): 47 mg/kg; muscle relaxant activity (in words) ([8]; versus Zoxazolamine, inclined screen and rotarod): more potent than the reference substance Zoxazolamine

— US4614740A, “5H-2,3-benzodiazepine derivatives and pharmaceutical compositions containing the same” (Egis Gyogyszergyar, priority 1984, dated 1986)
